Results taken from patent publication US11986530B2, “Drug composition for parenteral administration” (THERABIOPHARMA INC., priority 2016, dated 2024).
Each block holds one compound with its values, some of them ahead of it.

Experiments:
[1] = system: Jurkat cells; conditions: in vitro; cited from earlier work
[2] = system: β-glucuronidase; conditions: 10 μL of 2.45 μg/mL substrate, pH 5.0, 37° C., 1 hour, n=3
Description: In this regard, as a control, curcumin monoglucuronide was used for the examination.
In addition, as the curcumin diglucuronide, commercially available curcumin diglucuronide (manufactured by SynInnova Laboratories Inc.) was used.
Next, into the resultant mixture, 0.5 mL of chloroform was added, and the mixture was stirred for 1 minute with a vortex mixer, and then the stirred mixture was treated for 15 minutes by using an ultrasonic generator, and the treated mixture was fractionated into a chloroform layer and a water layer by centrifugation (10,000×g, for 5 minutes, at room temperature). Further, this fractionation process was repeated twice. After that, the chloroform layer was collected, and dried and solidified by distilling off the solvent with a vacuum centrifugal concentrator, and to the dried and solidified matter, 100 μL of 50% (v/v) methanol was added, and then the resultant mixture was centrifuged (10,000×g, for 5 minutes, at room temperature) to collect a supernatant liquid, and the collected supernatant liquid was taken as an enzyme-treated sample.
In 2 μL of the enzyme-treated sample prepared in the above (2), free curcumin was measured by the method described in “b.

[3] = system: A549; conditions: A549, in vitro; cited from earlier work
[4] = system: U266; conditions: U266, in vitro; cited from earlier work
[5] = system: KBM-5; conditions: KBM-5, in vitro; cited from earlier work
[6] = system: colorectal cancer cells derived from adult human colon HCT116; assay: Anti-tumor effect by intravenous administration of curcumin conjugates (tumor size, HCT116 transplanted mice); format: in vivo, BALB/cAnNcr j-nu/nu (homo) mice; conditions: parenteral (i.v.) administration, 30 or 90 mg/kg, versus control group
Description: 1×10^7 or 4×10^6 colorectal cancer cells derived from adult human […] colon HCT116 (ATCC No. CCL-247) were transplanted subcutaneously into the flank of each of the test animals by using a 27 G injection needle.
In this regard, in the control group, mice to which water for injection excluding curcumin monoglucuronide had been administered intravenously were used.
For the tumor size, after each lapse of 0, 4, 7, 11 and 14 days from the start of administration or after each lapse of 0, 4, 7, 11, 14, 18 and 21 days from the start of administration, the length, width and height of the tumor were measured by using a vernier caliper, and the tumor size was calculated by the following equation. Tumor size (mm^3)=length×width×height×0.5 (5) Concentration of Curcumin Conjugates and Free Curcumin in Tumor Tissue

[7] = Intravenous administration test: concentration of curcumin conjugates and free curcumin in plasma; format: in vivo, SD rats; conditions: rat
Description: As the test animals, 9-week old SD rats (male, with a body weight of 330 to 360 g, CHARLES RIVER LABORATORIES JAPAN, INC.) were used.
The intravenous administration was performed as follows: a predetermined amount of the curcumin monoglucuronide prepared in Production Example 1 was dissolved into water for injection so as to be 30 mg/kg; and the obtained preparation was administered intravenously to each of the test animals (n=5) fasted for 12 hours or more before the administration via an indwelling catheter in the femoral artery of each of the test animals. In this regard, the catheter was indwelled in the femoral artery under isoflurane anesthesia on the day of administration and blood collection.
Blood was collected via a catheter from the femoral artery of each of test animals by using a heparin-treated syringe under the restraint condition in a Ballman cage without anesthesia. In this regard, around 0.6 mL of blood was collected after each lapse of 1, 3, 5, 10, 15, 30, 60, 120, 240 and 480 minutes from the start of intravenous administration, and the collected blood was centrifuged (at 3,000 rpm, for 10 minutes, at 4° C.) to obtain the plasma.
The concentration of each of the curcumin conjugate and free curcumin in plasma was determined by the following methods.
Further, this fractionation process was repeated twice.
In this regard, in the following test, a supernatant liquid prepared by using a β-glucuronidase solution was used as an enzyme-treated sample, and a supernatant liquid prepared by using distilled water in place of the β-glucuronidase solution was used as a non-enzyme-treated sample.
By analyzing 2 μL of the enzyme-treated or non-enzyme-treated sample prepared in the above-described “a. Pretreatment” using LC-MS/MS (manufactured by Shimadzu Corporation), the concentration of each of the curcumin conjugate and free curcumin in plasma was determined.
That is, by measuring the concentration of the curcumin contained in the enzyme-treated sample that had been obtained by the treatment with β-glucuronidase, the total concentration of curcumin in plasma was measured.
On the other hand, by measuring the concentration of the curcumin in the non-enzyme-treated sample that had not been treated with β-glucuronidase, the concentration of free curcumin in plasma was measured.
Further, by subtracting the concentration of free curcumin from the total concentration of curcumin, the concentration of the curcumin conjugates contained in plasma was calculated.
In this regard, the LC-MS/MS analysis conditions were set to be a LC column of Atlantis T3 (2.1×150 mm, 3 μm, manufactured by Waters), a column temperature of 40° C., a flow rate of 0.2 mL/min, and a mobile phase of A of a 0.1% formic acid aqueous solution and B of 0.1% formic acid/acetonitrile, and the gradient elution was performed under the following conditions (Table 1). In addition, the MS analysis conditions were set to be an ionization mode of […] (ESI), Positive, a measurement mode of Multiple Reaction Monitoring (MRM), curcumin of 369.1→177.2 (m/z), and mepronil of 270→119 (m/z), and the evaluation was performed.

[8] = Concentration of curcumin conjugates and free curcumin in tumor tissue; format: in vivo, BALB/cAnNcr j-nu/nu (homo) mice; conditions: mouse, day 21
Description: For the mice (n=8) inoculated with the 4×10^6 cancer cells (HCT116), the tumor after the lapse of 2 hours from the intravenous administration of curcumin monoglucuronide (90 mg/kg) after the lapse of 21 days from the start of inoculation was removed from each of the mice, the removed tumor was rinsed with a saline solution, and then immediately frozen in liquid nitrogen, and the frozen tumor was stored in an ultra-low temperature tank at −80° C.
The frozen and stored tumor was thawed while cooling in ice, an adequate amount of a saline solution was added to the thawed tumor, and the thus obtained tumor was homogenized with a glass homogenizer, the concentration of each of the curcumin conjugates and free curcumin in the pulverized tumor obtained as described above were measured to examine the concentration of each of the curcumin conjugates and free curcumin contained in the tumor tissue.

[9] = cited from earlier work
[10] = system: human hepatocellular carcinoma cell lines (HepG2 cells); conditions: cited from earlier work

Compound: COc1cc(/C=C/C(=O)CC(=O)/C=C/c2ccc(O[C@@H]3O[C@H](C(=O)O)[C@@H](O)[C@H](O)[C@H]3O)c(OC)c2)ccc1O[C@@H]1O[C@H](C(=O)O)[C@@H](O)[C@H](O)[C@H]1O [curcumin diglucuronide]
cell growth inhibitory effect [1]: there is no such an effect
concentration of the curcumin contained in the enzyme-treated sample [2]: 82.4 ± 0.8 ng/mL
cell growth inhibitory effect [3]: there is no such an effect
cell growth inhibitory effect [4]: there is no such an effect
cell growth inhibitory effect [5]: there is no such an effect

Cmax (ng/mL) of curcumin conjugates in plasma ([7]; 30 mg/kg i.v.): 160492 ± 19156 ng/mL
AUC 0.02-8 h (ng·h/mL) of free curcumin in plasma ([7]; 30 mg/kg i.v. of conjugate): 2780 ± 962 ng·h/mL
Cmax (ng/mL) of free curcumin in plasma ([7]; 30 mg/kg i.v. of conjugate): 10143 ± 3832 ng/mL
concentration of free curcumin in plasma ([7]; 30 mg/kg i.v. of conjugate, 1 minute after administration): 10143 ± 3832 ng/mL
concentration of free curcumin in plasma ([7]; 30 mg/kg i.v. of conjugate, 3 minutes): 7562 ± 2903 ng/mL
concentration of free curcumin in plasma ([7]; 30 mg/kg i.v. of conjugate, 5 minutes): 5707 ± 2539 ng/mL
concentration of free curcumin in plasma ([7]; 30 mg/kg i.v. of conjugate, 10 minutes): 3596 ± 1233 ng/mL
concentration of free curcumin in plasma ([7]; 30 mg/kg i.v. of conjugate, 15 minutes): 2764 ± 796 ng/mL
concentration of free curcumin in plasma ([7]; 30 mg/kg i.v. of conjugate, 30 minutes): 1605 ± 592 ng/mL
concentration of free curcumin in plasma ([7]; 30 mg/kg i.v. of conjugate, 1 hour): 568 ± 197 ng/mL
concentration of free curcumin in plasma ([7]; 30 mg/kg i.v. of conjugate, 2 hours): 117 ± 39 ng/mL
concentration of free curcumin in plasma ([7]; 30 mg/kg i.v. of conjugate, 4 hours): 16 ± 5 ng/mL
concentration of free curcumin in plasma ([7]; 30 mg/kg i.v. of conjugate, 8 hours): 6 ± 14 ng/mL
concentration of curcumin conjugates in plasma ([7]; 30 mg/kg i.v., 1 minute after administration): 160492 ± 19156 ng/mL
concentration of curcumin conjugates in plasma ([7]; 30 mg/kg i.v., 3 minutes): 77803 ± 6442 ng/mL
concentration of curcumin conjugates in plasma ([7]; 30 mg/kg i.v., 5 minutes): 80489 ± 7161 ng/mL
concentration of curcumin conjugates in plasma ([7]; 30 mg/kg i.v., 10 minutes): 46853 ± 10700 ng/mL
concentration of curcumin conjugates in plasma ([7]; 30 mg/kg i.v., 15 minutes): 22918 ± 5271 ng/mL
concentration of curcumin conjugates in plasma ([7]; 30 mg/kg i.v., 30 minutes): 10191 ± 3502 ng/mL
concentration of curcumin conjugates in plasma ([7]; 30 mg/kg i.v., 1 hour): 4363 ± 1354 ng/mL
concentration of curcumin conjugates in plasma ([7]; 30 mg/kg i.v., 2 hours): 1493 ± 371 ng/mL
concentration of curcumin conjugates in plasma ([7]; 30 mg/kg i.v., 4 hours): 403 ± 120 ng/mL
concentration of curcumin conjugates in plasma ([7]; 30 mg/kg i.v., 8 hours): 78 ± 39 ng/mL
concentration of the free curcumin in the tumor tissue ([8]; 2 hours after 90 mg/kg i.v. of conjugate): 1464.5 ± 840.9 ng/g
concentration of the curcumin conjugates in the tumor tissue ([8]; 2 hours after 90 mg/kg i.v.): 605.4 ± 465.5 ng/g
Compound: COc1cc(/C=C/C(=O)CC(=O)/C=C/c2ccc(O[C@@H]3O[C@H](C(=O)O)[C@@H](O)[C@H](O)[C@H]3O)c(OC)c2)ccc1O [curcumin monoglucuronide]
effect on tumor growth (in words) [6]: significantly suppressing the tumor growth

Compound: COc1cc(/C=C/C(=O)/C=C(O)/C=C/c2ccc(O)c(OC)c2)ccc1O [curcumin]
cell growth inhibitory effect [1]: has an effect of suppressing the growth of these cells
solubility in water [9]: hardly soluble in water
cell growth inhibitory effect [3]: has an effect of suppressing the growth of these cells
cell growth inhibitory effect [10]: found the cell growth inhibitory effect
cell growth inhibitory effect [4]: has an effect of suppressing the growth of these cells
cell growth inhibitory effect [5]: has an effect of suppressing the growth of these cells
